Patent publication US20250268980A1, “AN ANTICANCER THERAPY TARGETING RAS AND OTHER ONCOGENIC SIGNALS BY INHIBITION OF DYNAMIC BLEBBING AND/OR SEPTINS” (THE BOARD OF REGENTS OF THE UNIVERSITY OF TEXAS SYSTEM, priority 2022, published 2025)

Key:
MV3 cells = assay: Detached/adhered viability assay, ethidium homodimer staining, MV3; assay type: cell-based, human; details: for cell death: 24 hours of WGA
Protocol: (§1) Bleb formation was inhibited using wheat germ agglutinin (WGA), a lectin that reduces plasma membrane deformability by crosslinking components of the glycocalyx. […] To investigate putative bleb function as a driver of anchorage-independent cell survival assays were designed that consistently minimized both cell-substrate and cell-cell attachment over a period of 24 hours. This was accomplished by seeding cells at very low density (approx. 250 or 100 cells/ml) in non-adherent culture dishes under constant gentle agitation. For controls, cells were grown at identical concentrations in adherent variants of the same culture dishes. Together, this generated pairs of ‘detached’ and ‘adhered’ cell populations in paired same-day experiments.
Detached/Adhered Cell Culture. […] Drug treatments, solvent-only controls, or CellEvent caspase activity sensor were added to suspensions if appropriate to the experiment, and then immediately transferred to both an uncoated (for detached cells) and ibiTreated (for adhered cells) 8-well ibidi u-slide (ibidi cat #80821 and 80826) at 200 μl/well. Both slides were stored at 37° C. and 5% CO2 for either 24 hours (hrs) for viability assays, 3 hrs for ERK activity assays or 4 hours for caspase activation assays. Uncoated slides (detached) were nutated at 20 rpm during this time. […] For experiments using MAPKi A375 cells, Dabrafenib and Trametinib treatment was continued over the course of the experiment. […]
Viability, ERK Activity, and Caspase ActivityCell Counting Assays. Viability, ERK activity, and caspase activity assays were analyzed using live-cell fluorescent and phase-contrast microscopy, performed on a Nikon Ti microscope equipped with an environmental chamber held at 37° C. and 5% CO2 at 20× magnification. […] Live and dead cells (as identified by significant cellular ethidium signal) were counted using the Cell Counter ImageJ plugin. For ERK activity assays, live cells carrying ERK-nKTR-GFP and H2B-mCherry were imaged after 3 hours of experimental conditions and high/low ERK activity cells were counted with Cell Counter ImageJ plugin. […]

M498 cells = assay: Detached/adhered viability assay, ethidium homodimer staining, M498; assay type: cell-based, human; details: for cell death: 24 hours of WGA
Protocol: as §1
Detached/Adhered Cell Culture. […] Drug treatments, solvent-only controls, or CellEvent caspase activity sensor were added to suspensions if appropriate to the experiment, and then immediately transferred to both an uncoated (for detached cells) and ibiTreated (for adhered cells) 8-well ibidi u-slide (ibidi cat #80821 and 80826) at 200 μl/well. Both slides were stored at 37° C. and 5% CO2 for either 24 hours (hrs) for viability assays, 3 hrs for ERK activity assays or 4 hours for caspase activation assays. Uncoated slides (detached) were nutated at 20 rpm during this time. […]
Viability, ERK Activity, and Caspase ActivityCell Counting Assays. Viability, ERK activity, and caspase activity assays were analyzed using live-cell fluorescent and phase-contrast microscopy, performed on a Nikon Ti microscope equipped with an environmental chamber held at 37° C. and 5% CO2 at 20× magnification. […] Live and dead cells (as identified by significant cellular ethidium signal) were counted using the Cell Counter ImageJ plugin. For ERK activity assays, live cells carrying ERK-nKTR-GFP and H2B-mCherry were imaged after 3 hours of experimental conditions and high/low ERK activity cells were counted with Cell Counter ImageJ plugin. […] Caspase positive and negative cells (as identified by significant cellular CellEvent signal) were counted using the Cell Counter ImageJ plugin.

MEF cells = assay: Caspase activity assay (CellEvent Caspase-3/7) in MEF cells expressing DYN2 (K44A); assay type: cell-based, mouse; details: 10 μg/mL WGA or 50 μM FCF; for anoikis resistance acquired by DYN2 (K44A) expression: MEF DYN2 (K44A); for caspase activation: detached MEF DYN2 (K44A), 4 hours
Text: Inhibitors. Wheat Germ Agglutinin (WGA) was purchased from Sigma (product #L9640). Forchlorfenuron (FCF) was purchased from Sigma (product #C2791). VitroGel and VitroGel-RGD were purchased from TheWell Bioscience (sku #s TWG001 and TWG002). H1152 was purchased from Tocris (catalogue #2414). NSC6683394 was purchased from Sigma (product #341216). Dabrafenib (GSK2118436), and Trametinib (GSK1120212) were purchased from Selleckchem. Transient expression of dominant negative Dyn2 (K44A) 66,67 was achieved through adenovirus transduction68 as previously described69 with cells analyzed 16-18 hours after transduction.
Detached/Adhered Cell Culture. […] Drug treatments, solvent-only controls, or CellEvent caspase activity sensor were added to suspensions if appropriate to the experiment, and then immediately transferred to both an uncoated (for detached cells) and ibiTreated (for adhered cells) 8-well ibidi u-slide (ibidi cat #80821 and 80826) at 200 μl/well. Both slides were stored at 37° C. and 5% CO2 for either 24 hours (hrs) for viability assays, 3 hrs for ERK activity assays or 4 hours for caspase activation assays. Uncoated slides (detached) were nutated at 20 rpm during this time. […] For experiments using MAPKi A375 cells, Dabrafenib and Trametinib treatment was continued over the course of the experiment.
Viability, ERK Activity, and Caspase ActivityCell Counting Assays. Viability, ERK activity, and caspase activity assays were analyzed using live-cell fluorescent and phase-contrast microscopy, performed on a Nikon Ti microscope equipped with an environmental chamber held at 37° C. and 5% CO2 at 20× magnification. For viability assays, cells were stained with ethidium homodimer-1 (Invitrogen cat #E1169) at 4 µM and Hoechst (ThermoFisher cat #H3570) at 10 μg/ml for 15 minutes before imaging. Live and dead cells (as identified by significant cellular ethidium signal) were counted using the Cell Counter ImageJ plugin. For ERK activity assays, live cells carrying ERK-nKTR-GFP and H2B-mCherry were imaged after 3 hours of experimental conditions and high/low ERK activity cells were counted with Cell Counter ImageJ plugin. Cells in which nuclear GFP signals were by eye higher than cytoplasmic signal (“brighter” nucleus visible within “darker” cytoplasm) were labelled ERK low, while cytoplasmic signals equal to or higher than nuclear signal (nucleus indistinguishable from cytoplasm or “darker” nucleus within “brighter” cytoplasm) were labelled ERK high. To control for unconscious bias in making this determination, the identity of all ERK experimental groups were blinded from the analyst. […] Caspase positive and negative cells (as identified by significant cellular CellEvent signal) were counted using the Cell Counter ImageJ plugin.

For wheat germ agglutinin [WGA], the cell death (MV3 cells; adhered MV3 cells) was “little to none”, the cell death (MV3 cells; detached MV3 cells) was “high levels of cell death” and the cell death (M498 cells; adhered M498 cells) was “die upon WGA treatment”. For the same compound, the cell death (M498 cells; detached M498 cells) was “significantly more death”, the “anoikis resistance acquired by DYN2 (K44A) expression” value (MEF cells) was “reversed” and the caspase activation (MEF cells) was “returned to levels seen in matched non-blebbing control cells”.
O=C(Nc1ccccc1)Nc1ccnc(Cl)c1 [FCF, forchlorfenuron] was tested, and the “anoikis resistance (cell death adhered vs detached)” value (MV3 cells; MV3, 50 μM FCF, 24 hours) was “greatly disrupted anoikis resistance”, the “anoikis resistance (cell death adhered vs detached)” value (M498 cells; M498, 50 μM FCF, 24 hours) was “greatly disrupted anoikis resistance” and the “anoikis resistance acquired by DYN2 (K44A) expression” value (MEF cells) was “reversed”. The caspase activation (MEF cells) was “returned to levels seen in matched non-blebbing control cells”.
